Active and inactive are the calls of the source. No cut-off for these calls is given here.
Columns and labels:
Mus musculus [1] = test: Anti-inflammatory activity in ICR mouse assessed as inhibition of xylene induced ear edema at 0.10 mmol/kg pretreated orally for 30 mins followed by xylene challenge measured after 2 hrs relative to control; type: functional; settings: po
Mus musculus [2] = test: Anti-inflammatory activity in xylene induced ICR mouse ear edema model assessed as edema weight at 0.10 mmol/kg, po pretreated 30 mins followed by xylene challenge measured after 2 hrs (reference value: 4.07 +/- 0.51 mg); type: functional
Mus musculus [3] = test: Toxicity in mouse assessed as tail bleeding time at 0.50 mmol/kg, po administered 30 mins prior to tail transection measured every 30 secs (reference value: 120.5 +/- 7.9 sec); type: organism-based; settings: in vivo
Mus musculus [4] = test: Toxicity in mouse assessed as tail bleeding time at 0.50 mmol/kg, po administered 45 mins prior to tail transection measured every 30 secs (reference value: 119.8 +/- 8.4 sec); type: organism-based; settings: in vivo
Mus musculus [5] = test: Toxicity in mouse assessed as tail bleeding time at 0.50 mmol/kg, po administered 60 mins prior to tail transection measured every 30 secs (reference value: 120.4 +/- 7.9 sec); type: organism-based; settings: in vivo
Mus musculus [6] = test: Toxicity in mouse assessed as tail bleeding time at 0.50 mmol/kg, po administered 90 mins prior to tail transection measured every 30 secs (reference value: 119.3 +/- 7.7 sec); type: organism-based; settings: in vivo
HUVEC = test: Protection against simulated ischemia/reperfusion injury-induced cell death in HUVEC assessed as increase in cell viability at 30 ug/ml treated for 12 hrs under normoxic condition prior to simulated ischemia for 2 hrs followed by compound washout measured 3 hrs post reperfusion; type: functional, cell-based; settings: Homo sapiens
Mus musculus [7] = test: Anti-inflammatory activity in ICR mouse assessed as inhibition of xylene induced ear edema pretreated orally for 30 mins followed by xylene challenge measured after 2 hrs; type: functional
Rattus norvegicus [8] = test: Protection against ischemia/reperfusion-induced Wistar rat intestinal injury model assessed as reduction in lipid peroxidation by measuring lipid peroxide levels at 30 mg/kg administered as bolus dose pretreated for 5 mins followed by 12 hrs reperfusion and subsequent compound addition at 10 mg/kg administered at 1 hr interval during reperfusion period measured at 1.5 to 12 hrs post reperfusion by spectrophotometric method; type: functional, organism-based
Rattus norvegicus [9] = test: Protection against ischemia/reperfusion-induced Wistar rat intestinal injury model assessed as effect on TNFalpha levels at 30 mg/kg administered as bolus dose pretreated for 5 mins followed by 12 hrs reperfusion and subsequent compound addition at 10 mg/kg administered at 1 hr interval during reperfusion period by ELISA (reference value: 62.9 +/- 8.7 pg/ml); type: functional

| Structure (SMILES) | inhibition in vivo at 100 µmol/kg (Mus musculus [1]) [%] | Activity (Mus musculus [2]) [mg] | Time (Mus musculus [3]) [s] | Time (Mus musculus [4]) [s] | Time (Mus musculus [5]) [s] | Time (Mus musculus [6]) [s] | Activity (HUVEC) | inhibition (Mus musculus [7]) | Activity (Rattus norvegicus [8]) | Activity (Rattus norvegicus [9]) [pg/mL] |
| --- | --- | --- | --- | --- | --- | --- | --- | --- | --- | --- |
| CC1(C)CC(n2cc(CNC(=O)[C@@H](Cc3c[nH]cn3)NC(=O)[C@@H]3Cc4c([nH]c5ccccc45)CN3C(=O)[C@@H]3Cc4c([nH]c5ccccc45)CN3)nn2)CC(C)(C)N1[O] | 48.6 | 2.09 | 119 | 120.5 | 119.5 | 118 | – | – | – | – |
| CC1(C)CC(n2cc(CNC(=O)[C@@H](CCCCN)NC(=O)[C@@H]3Cc4c([nH]c5ccccc45)CN3C(=O)[C@@H]3Cc4c([nH]c5ccccc45)CN3)nn2)CC(C)(C)N1[O] | 57 | 1.75 | 121.4 | 119.8 | 120.5 | 118.5 | Active | Dose-dependent effect | – | – |
| CSCC[C@@H](NC(=O)[C@@H]1Cc2c([nH]c3ccccc23)CN1C(=O)[C@@H]1Cc2c([nH]c3ccccc23)CN1)C(=O)NCc1cn(C2CC(C)(C)N([O])C(C)(C)C2)nn1 | 43.5 | 2.3 | 119.3 | 118.4 | 119.6 | 117.9 | – | – | – | – |
| CC1(C)CC(O)CC(C)(C)N1[O] [TEMPOL] | – | – | – | – | – | – | – | – | Active | 25.2 |
| C[C@@H](NC(=O)[C@@H]1Cc2c([nH]c3ccccc23)CN1C(=O)[C@@H]1Cc2c([nH]c3ccccc23)CN1)C(=O)NCc1cn(C2CC(C)(C)N([O])C(C)(C)C2)nn1 | 32.9 | 2.73 | 119.6 | 115.3 | 117.7 | 119.8 | – | – | – | – |
| CC1(C)CC(n2cc(CNC(=O)[C@@H](Cc3c[nH]c4ccccc34)NC(=O)[C@@H]3Cc4c([nH]c5ccccc45)CN3C(=O)[C@@H]3Cc4c([nH]c5ccccc45)CN3)nn2)CC(C)(C)N1[O] | 50.4 | 2.02 | 119.4 | 120.3 | 121.8 | 117.3 | – | – | – | – |
| CC(C)[C@@H](NC(=O)[C@@H]1Cc2c([nH]c3ccccc23)CN1C(=O)[C@@H]1Cc2c([nH]c3ccccc23)CN1)C(=O)NCc1cn(C2CC(C)(C)N([O])C(C)(C)C2)nn1 | 36.6 | 2.58 | 116.4 | 119.3 | 120.4 | 118.7 | – | – | – | – |
| CC1(C)CC(n2cc(CNC(=O)[C@H]3CCCN3C(=O)[C@@H]3Cc4c([nH]c5ccccc45)CN3C(=O)[C@@H]3Cc4c([nH]c5ccccc45)CN3)nn2)CC(C)(C)N1[O] | 43.2 | 2.31 | 119.9 | 119.5 | 121.4 | 119.7 | – | – | – | – |
| CC(C)C[C@@H](NC(=O)[C@@H]1Cc2c([nH]c3ccccc23)CN1C(=O)[C@@H]1Cc2c([nH]c3ccccc23)CN1)C(=O)NCc1cn(C2CC(C)(C)N([O])C(C)(C)C2)nn1 | 47 | 2.16 | 121 | 120.7 | 119.8 | 119.1 | – | – | – | – |
| CC1(C)CC(n2cc(CNC(=O)[C@@H](CC(N)=O)NC(=O)[C@@H]3Cc4c([nH]c5ccccc45)CN3C(=O)[C@@H]3Cc4c([nH]c5ccccc45)CN3)nn2)CC(C)(C)N1[O] | 56.3 | 1.78 | 119.7 | 118.4 | 119.5 | 119.2 | Active | Dose-dependent effect | – | – |
| CC1(C)CC(n2cc(CNC(=O)[C@@H](CO)NC(=O)[C@@H]3Cc4c([nH]c5ccccc45)CN3C(=O)[C@@H]3Cc4c([nH]c5ccccc45)CN3)nn2)CC(C)(C)N1[O] | 40.5 | 2.42 | 121.1 | 119.7 | 122.5 | 118.6 | – | – | – | – |
| C[C@@H](O)[C@@H](NC(=O)[C@@H]1Cc2c([nH]c3ccccc23)CN1C(=O)[C@@H]1Cc2c([nH]c3ccccc23)CN1)C(=O)NCc1cn(C2CC(C)(C)N([O])C(C)(C)C2)nn1 | 47.2 | 2.15 | 116.9 | 117.3 | 118.5 | 117.4 | – | – | – | – |
| CC1(C)CC(n2cc(CNC(=O)[C@@H](CCC(N)=O)NC(=O)[C@@H]3Cc4c([nH]c5ccccc45)CN3C(=O)[C@@H]3Cc4c([nH]c5ccccc45)CN3)nn2)CC(C)(C)N1[O] | 47.7 | 2.13 | 117.4 | 119.6 | 120.6 | 119.3 | – | – | – | – |
| CC1(C)CC(n2cc(CNC(=O)[C@@H](Cc3ccccc3)NC(=O)[C@@H]3Cc4c([nH]c5ccccc45)CN3C(=O)[C@@H]3Cc4c([nH]c5ccccc45)CN3)nn2)CC(C)(C)N1[O] | 45.9 | 2.2 | 119.4 | 119.1 | 117.6 | 119 | – | – | – | – |
| CC1(C)CC(n2cc(CNC(=O)[C@@H](CCCNC(=N)N([N+](=O)[O-])[N+](=O)[O-])NC(=O)[C@@H]3Cc4c([nH]c5ccccc45)CN3C(=O)[C@@H]3Cc4c([nH]c5ccccc45)CN3)nn2)CC(C)(C)N1[O] | 63.1 | 1.5 | 121.8 | 120.2 | 119.8 | 119.7 | Active | Dose-dependent effect | – | – |
| CC[C@@H](C)[C@@H](NC(=O)[C@@H]1Cc2c([nH]c3ccccc23)CN1C(=O)[C@@H]1Cc2c([nH]c3ccccc23)CN1)C(=O)NCc1cn(C2CC(C)(C)N([O])C(C)(C)C2)nn1 | 44.7 | 2.25 | 119.7 | 117.5 | 116.1 | 121.7 | – | – | – | – |
| CC1(C)CC(n2cc(CNC(=O)CNC(=O)[C@@H]3Cc4c([nH]c5ccccc45)CN3C(=O)[C@@H]3Cc4c([nH]c5ccccc45)CN3)nn2)CC(C)(C)N1[O] | 34.7 | 2.65 | 117.7 | 114.5 | 116.4 | 115.8 | – | – | – | – |
| CC1(C)CC(n2cc(CNC(=O)[C@@H](Cc3ccc(O)cc3)NC(=O)[C@@H]3Cc4c([nH]c5ccccc45)CN3C(=O)[C@@H]3Cc4c([nH]c5ccccc45)CN3)nn2)CC(C)(C)N1[O] | 60 | 1.63 | 117.2 | 118 | 117.5 | 118.6 | Active | Dose-dependent effect | – | – |

Reference: ChEMBL document CHEMBL4028817, “Indole-TEMPO conjugates alleviate ischemia-reperfusion injury via attenuation of oxidative stress and preservation of mitochondrial function” (Bioorg Med Chem, 2017)
